pKi: −log10 of the molar value. Like-named read-outs stand apart in the source and are kept apart here.
Assays:
[1] = target: T1, Histamine H3 receptor (Cavia porcellus, UniProt Q9JI35); assay: Histamine H3 radioligand binding assay, guinea pig cortex ([3H]-R-α-methylhistamine); parameters: The cortex was dissected, weighed and homogenised in ice-cold 20 mM Hepes-NaOH buffer; from tissue; host or cells: guinea pig cerebral cortex membranes; conditions: for Ki: guinea pig cortex membranes, [3H]-R-α-methylhistamine 0.1 nM, typical variance ±0.12 log units, read-out: pKI (binding assay) - cortex (converted)
Protocol: Histamine H3 Radioligand Binding Assay—Guinea Pig Cortex
Male Dunkin Hartley guinea pigs (200-300 g) were used. The whole brain was removed and immediately placed in ice-cold 20 mM Hepes-NaOH buffer (pH7.4 at 21±3° C.). The cortex was dissected, weighed and homogenised in ice-cold 20 mM Hepes-NaOH buffer (pH7.4 at 21±3° C.) (50 ml/guinea-pig cortex) using a polytron (Kinematica AG; PT-DA 3020/2TS, 3×3 s). The homogenate was centrifuged at 100×g for 5 min and the supernatants pooled and stored at 4° C. The pellets were rehomogenised in fresh ice-cold buffer (80 ml) and recentrifuged (100×g for 5 min). The supernatants were pooled and pellets rehomogenised and recentrifuged (100×g for 5 min). All supernatants were pooled and centrifuged at 39,800×g for 12 min at 4° C. The final pellet was resuspended in 20 mM Hepes-NaOH buffer (pH7.4 at 21±3° C.) to a tissue concentration of 7.5 mg.ml^−1, using a teflon-in-glass homogeniser.
Incubation Conditions and Data Analysis
These were essentially identical to those used for the guinea pig ileum myenteric plexus assay described above, except that the final assay concentration of [^3H]-R-α-methylhistamine was 0.1 nM. Typical variance in this assay is ±0.12 log units.

[2] = target: T1, Histamine H3 receptor; assay: ileal longitudinal muscle, myenteric plexus functional assay (rightward shift of R-(α)-methylhistamine E/[A] curves, Schild); type: cell-based; parameters: the longitudinal muscle layer and adhering myenteric plexus was teased away; from tissue; host or cells: guinea pig ileal longitudinal muscle with myenteric plexus (organ bath); conditions: guinea pig ileum longitudinal muscle myenteric plexus, electrically stimulated; antagonism of R-(α)-methylhistamine; typical variance ±0.15 log units; read-out: pKB (functional assay) - ileum (converted)
Protocol: The biological activity of the compounds of the examples was measured using the ileal longitudinal muscle, myenteric plexus assay described by Paton and Aboo Zar (J. Physiol. 1968, 194, 13-33). Male Dunkin-Hartley guinea pigs (250-300 g) were employed. Briefly, a 50 cm portion of ileum proximal to the caecum was removed, after discarding the terminal 20 cm. Ileal segments (3 cm) were cleaned by passing Krebs-Henseleit buffer containing 3 μM mepyramine gently through the ileum using a Pasteur pipette (size: 13.8 cm length, 0.65 cm diameter). To avoid unnecessary damage to the tissue, Krebs-Henseleit buffer was passed through the ileal segment, while it was lying horizontally on a petri dish. Therefore, the ileum was not over-distended and the buffer flowed through with ease. Each segment was then passed over a Pasteur pipette and the longitudinal muscle layer and adhering myenteric plexus was teased away using moist cotton wool, by stroking tangentially away from the mesenteric attachment. The tissues were suspended in 20 ml organ baths containing Krebs-Henseleit buffer at 37±1° C. and gassed with 95% CO2/5% O2. The tissues were ligated to two parallel stainless steel wires, situated between two platinum electrodes (0.76 cm length, 0.06 cm diameter). All measurements were recorded isometrically (Grass FTO3 transducer). Following an initial loading tension of 1 g, the tissues were stimulated with electrical pulses at a frequency of 0.1 Hz and a pulse duration of 0.5 msec, as described by Kosterlitz & Watt (Br. J. Pharmacol. 1968, 266-276). Initially, the tissues were stimulated at supramaximal (1.3 fold times maximal) voltage for a period of 30 min and then the tissues were washed and re-stimulated. A “sighter dose” of the selective histamine H3-receptor agonist, R-(α)-methylhistamine (0.3 μM) (Arrang et al. Nature, 1987, 117-123), was administered. Upon generation of response, the “sighter dose” was removed from the tissues by “washout” (6 washes over 60 min) and during this period the electrical stimulation was switched off. The tissues were then re-stimulated and allowed to stabilise prior to the addition of drug treatments, which were allocated on a randomised block basis to the organ baths. Following the incubation period, a single cumulative E/[A] curve was obtained. The experimental E/[A] curve data was expressed as the percentage inhibition of the peak height of electrically-stimulated contraction. Antagonist affinity values were calculated from the degree of rightward shift of the R-(α)-methylhistamine E/[A] curves using Schild's methods (Arunlakshana & Schild Br. J. Pharmacol. 1959, 48-58). Typical variance in this assay is ±0.15 log units.

T1 sequence (Q9JI35 whole entry): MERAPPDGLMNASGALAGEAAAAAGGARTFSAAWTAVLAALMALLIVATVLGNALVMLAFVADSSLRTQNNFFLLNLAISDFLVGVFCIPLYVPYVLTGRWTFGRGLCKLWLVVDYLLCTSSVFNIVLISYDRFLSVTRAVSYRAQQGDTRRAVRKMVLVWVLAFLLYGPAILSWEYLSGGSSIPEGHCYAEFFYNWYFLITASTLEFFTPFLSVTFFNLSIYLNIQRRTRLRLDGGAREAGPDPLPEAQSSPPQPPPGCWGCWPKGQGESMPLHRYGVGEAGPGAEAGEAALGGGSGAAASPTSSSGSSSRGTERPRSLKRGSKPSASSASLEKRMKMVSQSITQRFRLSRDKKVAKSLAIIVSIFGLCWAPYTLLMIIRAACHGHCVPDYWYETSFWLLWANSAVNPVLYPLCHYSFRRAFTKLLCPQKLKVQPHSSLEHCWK

SMILES | Ki [1] | Kb [2] | pKi [1]
O=S(=O)(CC(O)CCc1c[nH]cn1)NCc1ccc(Cl)cc1 (stereo not drawn) [Example 2, N-(4-Chlorobenzyl)-2-hydroxy-4-(1H-imidazol-4-yl)-1-butanesulfonamide] | 275 nM | 240 nM | 
O=C(CCc1c[nH]cn1)CS(=O)(=O)NCc1ccc(Cl)cc1 [Example 4, N-(4-Chlorobenzyl)-2-oxy-4-(1H-imidazol-4-yl)-1-butanesulfonamide] | 61.7 nM | 257 nM | 
O=S(=O)(CCCCCCc1c[nH]cn1)NCc1ccc(Cl)cc1 [Example 7, N-(4-Chlorobenzyl)-6-(1H-imidazol-4-yl)-1-hexanesulfonamide] | 2.88 nM | 5.13 nM | 
O=S(=O)(CC(O)CCCCc1c[nH]cn1)NCc1ccc(Cl)cc1 (stereo not drawn) [Example 8, N-(4-Chlorobenzyl)-2-hydroxy-6-(1H-imidazol-4-yl)-1-hexanesulfonamide] | 4.27 nM | 12.6 nM | 
O=S(=O)(CCCCc1c[nH]cn1)NCCc1ccc(Cl)cc1 [Example 9, N-(4-Chlorophenethyl)-4-(1H-imidazol-4-yl)-1-butanesulfonamide] | 44.7 nM | 302 nM | 
O=S(=O)(CC(O)CCc1c[nH]cn1)NCCc1ccc(Cl)cc1 (stereo not drawn) [Example 10, N-(4Chlorophenethyl)-2-hydroxy-4-(1H-imidazol-4-yl)-1-butanesulfonamide] | 741 nM |  | 
O=S(=O)(CCCCCc1c[nH]cn1)NCCc1ccc(Cl)cc1 [Example 11, N-(4-Chlorophenethyl)-5-(1H-imidazol-4-yl)-1-pentanesulfonamide] | 7.24 nM | 29.5 nM | 
O=S(=O)(CCCCCc1c[nH]cn1)NCc1ccccc1 [Example 13, N-Benzyl-5-(1H-imidazol-4-yl)-1-pentanesulfonamide] | 8.91 nM | 58.9 nM | 
O=S(=O)(CC(O)CCCc1c[nH]cn1)NCc1ccccc1 (stereo not drawn) [Example 14, N-Benzyl-2-hydroxy-5-(1H-imidazol-4-yl)-1-pentanesulfonamide] | 81.3 nM | 724 nM | 
O=S(=O)(CCCCCc1c[nH]cn1)NCc1ccc(Br)cc1 [Example 15, N-(4-Bromobenzyl)-5-(1H-imidazol-4-yl)-1-pentanesulfonamide] | 0.891 nM | 3.39 nM | 
O=S(=O)(CCCCc1c[nH]cn1)CCc1ccccc1 [Example 23, [4-(1H-Imidazol-4-yl)butyl]phenethyl sulfone] |  | 214 nM | 7.32
O=S(=O)(CCCCc1c[nH]cn1)CCc1ccc(Cl)cc1 [Example 24, [4-(1H-Imidazol-4-yl)butyl] 4-chlorophenethyl sulfone] | 5.62 nM | 10.7 nM | 
O=S(=O)(CCCCc1c[nH]cn1)Cc1ccc(Cl)cc1 [Example 25, [4-(1H-Imidazol-4-yl)butyl]-4-chlorobenzyl sulfone] | 18.6 nM | 30.2 nM | 

Second part, led by results:

Ki [1] | Kb [2] | SMILES | pKi [1]
1.12 nM | 18.2 nM | O=S(=O)(CC(O)CCCc1c[nH]cn1)NCc1ccc(Br)cc1 (stereo not drawn) [Example 16, N-(4-Bromobenzyl)-2-hydroxy-5-(1H-imidazol-4-yl)-1-pentanesulfonamide] | 
21.9 nM | 46.8 nM | O=S(=O)(CCCCCc1c[nH]cn1)NCC1CCCCC1 [Example 17, N-Cyclohexylmethyl-5-(1H-imidazol-4-yl)-1-pentanesulfonamide] | 
141 nM | 389 nM | O=S(=O)(CC(O)CCCc1c[nH]cn1)NCC1CCCCC1 (stereo not drawn) [Example 18, N-Cyclohexylmethyl-2-hydroxy-5-(1H-imidazol-4-yl)-1-pentanesulfonamide] | 
19.5 nM | 245 nM | O=S(=O)(CCCCCc1c[nH]cn1)NCc1ccccc1Cl [Example 19, N-(2-Chlorobenzyl)-5-(1H-imidazol-4-yl)-1-pentanesulfonamide] | 
126 nM | 331 nM | O=S(=O)(CC(O)CCCc1c[nH]cn1)NCc1ccccc1Cl (stereo not drawn) [Example 20, N-(2-Chlorobenzyl)-2-hydroxy-5-(1H-imidazol-4-yl)-1-pentanesulfonamide] | 
12 nM | 58.9 nM | O=S(=O)(CCCCCc1c[nH]cn1)NCc1cccc(Cl)c1 [Example 21, N-(3-Chlorobenzyl)-5-(1H-imidazol-4-yl)-1-pentanesulfonamide] | 
28.8 nM | 79.4 nM | O=S(=O)(CC(O)CCCc1c[nH]cn1)NCc1cccc(Cl)c1 (stereo not drawn) [Example 22, N-(3-Chlorobenzyl)-2-hydroxy-5-(1H-imidazol-4-yl)-1-pentanesulfonamide] | 
7.08 nM | 19.1 nM | O=S(=O)(CCCCCc1c[nH]cn1)NCc1ccc(F)cc1 [Example 28, N-(4-Fluorobenzyl)-5-(1H-imidazol-4-yl)-1-pentanesulfonamide] | 
6.17 nM | 25.7 nM | Cc1ccc(CNS(=O)(=O)CCCCCc2c[nH]cn2)cc1 [Example 29, N-(4-Methylbenzyl)-5-(1H-imidazol-4-yl)-1-pentanesulfonamide] | 
1.51 nM | 9.33 nM | O=S(=O)(CCCCCc1c[nH]cn1)NCc1ccc(C(F)(F)F)cc1 [Example 30, N-(4-Trifluoromethylbenzyl)-5-(1H-imidazol-4-yl)-1-pentanesulfonamide] | 
186 nM | 174 nM | O=S(=O)(CCCCCc1c[nH]cn1)NCC12CC3CC(CC(C3)C1)C2 [Example 31, N-(1-Adamantylmethyl)-5-(1H-imidazol-4-yl)-1-pentanesulfonamide] | 
5.89 nM | 25.1 nM | O=S(=O)(/C=C/CCCc1c[nH]cn1)NCc1ccc(Cl)cc1 [Example 32, (E)-N-(4-Chlorobenzyl)-5-(1H-imidazol-4-yl)-1-pent-1-enesulfonamide] | 
0.851 nM | 4.68 nM | O=S(=O)(C/C=C/CCc1c[nH]cn1)NCc1ccc(Cl)cc1 [Example 33, (E)-N-(4-Chlorobenzyl)-5-(1H-imidazol-4-yl)-1-pent-2-enesulfonamide] | 
10.2 nM | 17.4 nM | CN(Cc1ccc(Cl)cc1)S(=O)(=O)CCCCCc1c[nH]cn1 [Example 34, N-(4-Chlorobenzyl)-N-methyl-5-(1H-imidazol-4-yl)-1-pentanesulfonamide] | 
18.2 nM | 151 nM | NCCCN(Cc1ccc(Cl)cc1)S(=O)(=O)CCCCCc1c[nH]cn1 [Example 35, N-(4-Chlorobenzyl)-N-(3-aminopropyl)-5-(1H-imidazol-4-yl)-1-pentanesulfonamide] | 
200 nM | 1550 nM | O=S(=O)(CCCCCc1c[nH]cn1)N(Cc1ccccc1)Cc1ccc(Cl)cc1 [Example 36, N-Benzyl-N-(4-chlorobenzyl)-5-(1H-imidazol-4-yl)-1-pentanesulfonamide] | 
6.61 nM | 20.4 nM | O=[N+]([O-])CC(CCCc1c[nH]cn1)CS(=O)(=O)NCc1ccc(Cl)cc1 (stereo not drawn) [Example 37, N-(4-Chlorobenzyl)-2-nitromethyl-5-(1H-imidazol-4-yl)-1-pentanesulfonamide] | 
22400 nM |  | NC(CCCc1c[nH]cn1)CS(=O)(=O)NCc1ccc(Cl)cc1 (stereo not drawn) [Example 40, 2-Amino-N-(4-chlorobenzyl)-5-(1H-imidazol-4-yl)-1-pentanesulfonamide] | 

Source: patent US6355665B1, “1H-4(5)-substituted imidazole derivatives, their preparation and their use as histamine H3 receptor ligands” (James Black Foundation Limited, priority 1997, dated 2002)
